Reference: patent US11071300B2, “Pesticidally active pyrazole derivatives” (SYNGENTA PARTICIPATIONS AG, priority 2017, dated 2021)
Where two headings read alike, the source gives them in different places.

Legend:
Assay type in all cases: in vivo
Diabrotica Balteata = assay: Diabrotica balteata (corn root worm) maize sprout test; details: 96 h, read-out: control (mortality and growth inhibition)
Description: Diabrotica Balteata, (Corn Root Worm)
Maize sprouts, placed on an agar layer in 24-well microtiter plates were treated with aqueous test solutions prepared from 10′000 ppm DMSO stock solutions by spraying. After drying, the plates were infested with L2 larvae (6 to 10 per well). The samples were assessed for mortality and growth inhibition in comparison to untreated samples 4 days after infestation.

Thrips tabaci = Thrips tabaci (onion thrips) leaf disc test; details: foliar, 144 h, read-out: control (mortality)
Description: Thrips tabaci (Onion Thrips):
(§1) Sunflower leaf discs were placed on agar in 24-well microtiter plates and sprayed with aqueous test solutions prepared from 10′000 ppm DMSO stock solutions. After drying the leaf discs were infested with a thrips population of mixed ages. The samples were assessed for mortality 6 days after infestation.

Myzus persicae = Myzus persicae (green peach aphid) leaf disc test; details: foliar, 144 h, read-out: control (mortality)
Description: Myzus persicae (Green Peach Aphid):
Sunflower leaf discs were placed on agar in a 24-well microtiter plate and sprayed with test solutions at an application rate of 200 ppm. After drying, the leaf discs were infested with an aphid population of mixed ages. After an incubation period of 6 DAT, samples were checked for mortality.

Plutella xylostella = Plutella xylostella (diamond back moth) artificial diet test; details: 120 h, read-out: control (mortality and growth inhibition)
Description: Plutella xylostella (Diamond Back Moth):
24-well microtiter plates with artificial diet were treated with aqueous test solutions prepared from 10′000 ppm DMSO stock solutions by pipetting. After drying, the plates were infested with L2 larvae (10 to 15 per well). The samples were assessed for mortality and growth inhibition in comparison to untreated samples 5 days after infestation.

Spodoptera littoralis = Spodoptera littoralis (Egyptian cotton leaf worm) leaf disc test; details: foliar, 72 h, application rate 200 ppm, cotton leaf discs sprayed, L1 larvae, 3 days after infestation, read-out: control (at least one of mortality, anti-feedant effect, growth inhibition)
Description: Spodoptera littoralis (Egyptian Cotton Leaf Worm)
Cotton leaf discs were placed on agar in 24-well microtiter plates and sprayed with aqueous test solutions prepared from 10′000 ppm DMSO stock solutions. After drying the leaf discs were infested with five L1 larvae. The samples were assessed for mortality, anti-feedant effect, and growth inhibition in comparison to untreated samples 3 days after infestation. Control of Spodoptera littoralis by a test sample is when at least one of mortality, anti-feedant effect, and growth inhibition is higher than the untreated sample.

Tetranychus urticae = Tetranychus urticae (two-spotted spider mite) leaf disc test; details: foliar, 192 h, application rate 200 ppm, bean leaf discs sprayed, 8 days after infestation, read-out: control (mortality on mixed population, mobile stages)
Description: Tetranychus urticae (Two-Spotted Spider Mite):
as §1, with “Bean” for “Sunflower”, “discs” for “discs were placed”, “were” for “and”, “mite” for “thrips”, “on mixed population (mobile stages) 8” for “6”

Euschistus heros = Euschistus heros (neotropical brown stink bug) soybean leaf test; details: 120 h, read-out: control (mortality and growth inhibition)
Description: Euschistus heros (Neotropical Brown Stink Bug):
Soybean leaves on agar in 24-well microtiter plates were sprayed with aqueous test solutions prepared from 10′000 ppm DMSO stock solutions. After drying the leaves were infested with N2 nymphs. The samples were assessed for mortality and growth inhibition in comparison to untreated samples 5 days after infestation.

[1] = application rate 200 ppm, maize sprouts sprayed, L2 larvae, 4 days after infestation
[2] = application rate 200 ppm, sunflower leaf discs sprayed, mixed ages, 6 days after infestation
[3] = application rate 200 ppm, sunflower leaf discs sprayed, mixed ages, 6 DAT
[4] = application rate 200 ppm, artificial diet, L2 larvae, 5 days after infestation

CCN(C(=O)c1cc(-c2cnn(-c3c(C(F)(F)F)c(OS(=O)(=O)C(F)(F)C(F)(F)Cl)nn3C)c2)ccc1Cl)C1CC1 [Compound 10, [5-[4-[4-chloro-3-[cyclopropyl(ethyl)carbamoyl]phenyl]pyrazol-1-yl]-1-methyl-4-(trifluoromethyl)pyrazol-3-yl] 2-chloro-1,1,2,2-tetrafluoro-ethanesulfonate]
≥ 80%: mortality at 200 ppm (Diabrotica Balteata; [1]) | mortality at 200 ppm (Thrips tabaci; [2]) | mortality at 200 ppm (Myzus persicae; [3]) | mortality at 200 ppm (Plutella xylostella; [4]) | percent control (mortality, anti-feedant effect or growth inhibition) at 200 ppm (Spodoptera littoralis) | mortality at 200 ppm (Tetranychus urticae)

CCN(C(=O)c1cc(-c2cnn(-c3c(C(F)(F)F)c(OS(=O)(=O)C(F)(C(F)(F)F)C(F)(F)F)nn3C)c2)cnc1Cl)C1CC1 [Compound 23, [5-[4-[6-chloro-5-[cyclopropyl(ethyl)carbamoyl]-3-pyridyl]pyrazol-1-yl]-1-methyl-4-(trifluoromethyl)pyrazol-3-yl] 1,1,1,2,3,3,3-heptafluoropropane-2-sulfonate]
≥ 80%: mortality at 200 ppm (Diabrotica Balteata; [1]) | mortality at 200 ppm (Myzus persicae; [3]) | mortality at 200 ppm (Plutella xylostella; [4]) | percent control (mortality, anti-feedant effect or growth inhibition) at 200 ppm (Spodoptera littoralis) | mortality at 200 ppm (Tetranychus urticae)

CN(C(=O)c1cc(-c2cnn(-c3c(C(F)(F)F)c(OS(=O)(=O)C(F)(F)C(F)(F)C(F)(F)C(F)(F)F)nn3C)c2)ccc1Cl)C1(C#N)CC1 [Compound 6, [5-[4-[4-chloro-3-[(1-cyanocyclopropyl)-methyl-carbamoyl]phenyl]pyrazol-1-yl]-1-methyl-4-(trifluoromethyl)pyrazol-3-yl] 1,1,2,2,3,3,4,4,4-nonafluorobutane-1-sulfonate]
≥ 80%: mortality at 200 ppm (Diabrotica Balteata) | mortality at 200 ppm (Thrips tabaci) | mortality at 200 ppm (Plutella xylostella) | percent control (mortality, anti-feedant effect or growth inhibition) at 200 ppm (Spodoptera littoralis) | mortality at 200 ppm (Euschistus heros)

CCN(C(=O)c1cc(-c2cc(-c3c(C(F)(F)F)c(OS(=O)(=O)C(F)(F)C(F)(F)C(F)(F)C(F)(F)F)nn3C)no2)ccc1Cl)C1CC1 [Compound 41, [5-[5-[4-chloro-3-[cyclopropyl(ethyl)carbamoyl]phenyl]isoxazol-3-yl]-1-methyl-4-(trifluoromethyl)pyrazol-3-yl] 1,1,2,2,3,3,4,4,4-nonafluorobutane-1-sulfonate]
≥ 80%: mortality at 200 ppm (Diabrotica Balteata) | mortality at 200 ppm (Myzus persicae)

CCN(C(=O)c1cc(-c2cnn(-c3c(C(F)(F)F)c(OS(=O)(=O)C(F)(F)C(F)(F)C(F)(F)C(F)(F)F)nn3C)c2)cnc1Cl)C1CC1 [Compound 29, [5-[4-[6-chloro-5-[cyclopropyl(ethyl)carbamoyl]-3-pyridyl]pyrazol-1-yl]-1-methyl-4-(trifluoromethyl)pyrazol-3-yl] 1,1,2,2,3,3,4,4,4-nonafluorobutane-1-sulfonate]
≥ 80%: mortality at 200 ppm (Diabrotica Balteata) | mortality at 200 ppm (Myzus persicae) | mortality at 200 ppm (Plutella xylostella)

Cn1nc(OS(=O)(=O)C(F)(C(F)(F)F)C(F)(F)F)c(C(F)(F)F)c1-n1cc(-c2ccc(Cl)c(C(=O)NC3(C(F)F)CC3)c2)cn1 [Compound 64, [5-[4-[4-chloro-3-[[1-(difluoromethyl)cyclopropyl]carbamoyl]phenyl]pyrazol-1-yl]-1-methyl-4-(trifluoromethyl)pyrazol-3-yl] 1,1,1,2,3,3,3-heptafluoropropane-2-sulfonate]
≥ 80%: mortality at 200 ppm (Myzus persicae; [3]) | mortality at 200 ppm (Plutella xylostella; [4]) | percent control (mortality, anti-feedant effect or growth inhibition) at 200 ppm (Spodoptera littoralis) | mortality at 200 ppm (Tetranychus urticae)

CN(C(=O)c1cc(-c2cnn(-c3c(C(F)(F)F)c(OS(=O)(=O)C(F)(C(F)(F)F)C(F)(F)F)nn3C)c2)cnc1Cl)C1CC1 [Compound 22, [5-[4-[6-chloro-5-[cyclopropyl(methyl)carbamoyl]-3-pyridyl]pyrazol-1-yl]-1-methyl-4-(trifluoromethyl)pyrazol-3-yl] 1,1,1,2,3,3,3-heptafluoropropane-2-sulfonate]
≥ 80%: mortality at 200 ppm (Diabrotica Balteata; [1]) | mortality at 200 ppm (Thrips tabaci; [2]) | mortality at 200 ppm (Myzus persicae; [3]) | mortality at 200 ppm (Plutella xylostella; [4]) | percent control (mortality, anti-feedant effect or growth inhibition) at 200 ppm (Spodoptera littoralis) | mortality at 200 ppm (Tetranychus urticae)

CN(C(=O)c1cc(-c2cnn(-c3c(C(F)(F)F)c(OS(=O)(=O)C(F)(F)C(F)(F)Cl)nn3C)c2)ccc1Cl)C1(C#N)CC1 [Compound 19, [5-[4-[4-chloro-3-[(1-cyanocyclopropyl)-methyl-carbamoyl]phenyl]pyrazol-1-yl]-1-methyl-4-(trifluoromethyl)pyrazol-3-yl] 2-chloro-1,1,2,2-tetrafluoro-ethanesulfonate]
≥ 80%: mortality at 200 ppm (Diabrotica Balteata; [1]) | mortality at 200 ppm (Thrips tabaci; [2]) | mortality at 200 ppm (Myzus persicae; [3]) | mortality at 200 ppm (Plutella xylostella; [4]) | percent control (mortality, anti-feedant effect or growth inhibition) at 200 ppm (Spodoptera littoralis) | mortality at 200 ppm (Tetranychus urticae)

CCN(C(=O)c1cc(-c2cnn(-c3c(C(F)(F)F)c(OS(=O)(=O)C(F)(C(F)(F)F)C(F)(F)F)nn3C)c2)cnc1Cl)C1(C#N)CC1 [Compound 26, [5-[4-[6-chloro-5-[(1-cyanocyclopropyl)-ethyl-carbamoyl]-3-pyridyl]pyrazol-1-yl]-1-methyl-4-(trifluoromethyl)pyrazol-3-yl] 1,1,1,2,3,3,3-heptafluoropropane-2-sulfonate]
≥ 80%: mortality at 200 ppm (Diabrotica Balteata; [1]) | mortality at 200 ppm (Thrips tabaci; [2]) | mortality at 200 ppm (Myzus persicae; [3]) | mortality at 200 ppm (Plutella xylostella; [4]) | percent control (mortality, anti-feedant effect or growth inhibition) at 200 ppm (Spodoptera littoralis) | mortality at 200 ppm (Tetranychus urticae)

CN(C(=O)c1cc(-c2cnn(-c3c(C(F)(F)F)c(OS(=O)(=O)C(F)(C(F)(F)F)C(F)(F)F)nn3C)c2)ccc1Cl)C1CC1 [Compound 17, [5-[4-[4-chloro-3-[cyclopropyl(methyl)carbamoyl]phenyl]pyrazol-1-yl]-1-methyl-4-(trifluoromethyl)pyrazol-3-yl] 1,1,1,2,3,3,3-heptafluoropropane-2-sulfonate]
≥ 80%: mortality at 200 ppm (Diabrotica Balteata; [1]) | mortality at 200 ppm (Thrips tabaci; [2]) | mortality at 200 ppm (Myzus persicae; [3]) | mortality at 200 ppm (Plutella xylostella; [4]) | percent control (mortality, anti-feedant effect or growth inhibition) at 200 ppm (Spodoptera littoralis) | mortality at 200 ppm (Tetranychus urticae)

CCN(C(=O)c1cc(-c2cnn(-c3c(C(F)(F)F)c(OS(=O)(=O)C(F)(F)C(F)(F)F)nn3C)c2)ccc1Cl)C1CC1 [Compound 14, [5-[4-[4-chloro-3-[cyclopropyl(ethyl)carbamoyl]phenyl]pyrazol-1-yl]-1-methyl-4-(trifluoromethyl)pyrazol-3-yl] 1,1,2,2,2-pentafluoroethanesulfonate]
≥ 80%: mortality at 200 ppm (Diabrotica Balteata; [1]) | mortality at 200 ppm (Thrips tabaci; [2]) | mortality at 200 ppm (Myzus persicae; [3]) | mortality at 200 ppm (Plutella xylostella; [4]) | percent control (mortality, anti-feedant effect or growth inhibition) at 200 ppm (Spodoptera littoralis)

Cn1nc(OS(=O)(=O)C(F)(F)C(F)(F)C(F)(F)C(F)(F)F)c(C(F)(F)F)c1-n1cc(-c2cnc(Cl)c(C(=O)NC3CC3)c2)cn1 [Compound 27, [5-[4-[6-chloro-5-(cyclopropylcarbamoyl)-3-pyridyl]pyrazol-1-yl]-1-methyl-4-(trifluoromethyl)pyrazol-3-yl] 1,1,2,2,3,3,4,4,4-nonafluorobutane-1-sulfonate]
≥ 80%: mortality at 200 ppm (Diabrotica Balteata) | mortality at 200 ppm (Thrips tabaci) | mortality at 200 ppm (Myzus persicae) | mortality at 200 ppm (Plutella xylostella) | percent control (mortality, anti-feedant effect or growth inhibition) at 200 ppm (Spodoptera littoralis)

Cn1nc(OS(=O)(=O)C(F)(F)C(F)(F)Cl)c(C(F)(F)F)c1-n1cc(-c2ccc(Cl)c(C(=O)NC3(C#N)CC3)c2)cn1 [Compound 8, [5-[4-[4-chloro-3-[(1-cyanocyclopropyl)carbamoyl]phenyl]pyrazol-1-yl]-1-methyl-4-(trifluoromethyl)pyrazol-3-yl] 2-chloro-1,1,2,2-tetrafluoro-ethanesulfonate]
≥ 80%: mortality at 200 ppm (Diabrotica Balteata; [1]) | mortality at 200 ppm (Thrips tabaci; [2]) | mortality at 200 ppm (Myzus persicae; [3]) | mortality at 200 ppm (Plutella xylostella; [4]) | percent control (mortality, anti-feedant effect or growth inhibition) at 200 ppm (Spodoptera littoralis) | mortality at 200 ppm (Tetranychus urticae)
